In the NIST ThermoML archive (doi:10.1021/je100552a):

How the values were obtained:
[1] = xn = mol fraction of the nth substance listed; details: 101 kPa, Liquid; for viscosity: Capillary tube (Ostwald / Ubbelohde) method
[2] = refractive index (Na D-line) (dimensionless); xn = mol fraction of the nth substance listed; details: 101 kPa, Liquid, Standard Abbe refractometry

Brc1ccccc1 [bromobenzene] + ClCCCl
Details	refractive index, 298.15 K	refractive index, 303.15 K	refractive index, 308.15 K	refractive index, 313.15 K	viscosity, 298.15 K [mPa·s]	viscosity, 303.15 K [mPa·s]	viscosity, 308.15 K [mPa·s]	viscosity, 313.15 K [mPa·s]
[1], x2 = 0.1014	–	–	–	–	1.041	0.9749	0.9162	0.8463
[1], x2 = 0.2002	–	–	–	–	1.004	0.9388	0.8809	0.8155
[1], x2 = 0.3004	–	–	–	–	0.9677	0.904	0.8474	0.787
[1], x2 = 0.3999	–	–	–	–	0.9348	0.8714	0.815	0.7607
[1], x2 = 0.5008	–	–	–	–	0.9036	0.8409	0.7839	0.7355
[1], x2 = 0.6001	–	–	–	–	0.8752	0.8141	0.7583	0.712
[1], x2 = 0.6999	–	–	–	–	0.8496	0.7886	0.7321	0.6917
[1], x2 = 0.7995	–	–	–	–	0.8268	0.7646	0.711	0.6728
[1], x2 = 0.8998	–	–	–	–	0.8058	0.7445	0.6904	0.6569
[2], x2 = 0.1014	1.5479	1.5439	1.5412	1.5372	–	–	–	–
[2], x2 = 0.2002	1.5398	1.5355	1.5321	1.5279	–	–	–	–
[2], x2 = 0.3004	1.5313	1.5266	1.5227	1.5182	–	–	–	–
[2], x2 = 0.3999	1.5218	1.517	1.5128	1.5079	–	–	–	–
[2], x2 = 0.5008	1.5107	1.506	1.5015	1.4967	–	–	–	–
[2], x2 = 0.6001	1.4984	1.494	1.4893	1.4849	–	–	–	–
[2], x2 = 0.6999	1.4847	1.4808	1.4761	1.4722	–	–	–	–
[2], x2 = 0.7995	1.4704	1.4671	1.4622	1.459	–	–	–	–
[2], x2 = 0.8998	1.4559	1.4528	1.4479	1.4452	–	–	–	–

mass density [kg/m3], [1], Vibrating tube method
Details	x2 = 0.1014	x2 = 0.2002	x2 = 0.3004	x2 = 0.3999	x2 = 0.5008	x2 = 0.6001	x2 = 0.6999	x2 = 0.7995	x2 = 0.8998
298.15 K	1469.57	1449.41	1428.09	1406.01	1382.5	1358.18	1332.44	1305.43	1276.72
303.15 K	1461.55	1441.65	1420.51	1398.59	1375.26	1351.21	1325.77	1299.12	1270.73
308.15 K	1455.77	1435.38	1413.75	1391.37	1367.54	1342.97	1317.02	1289.84	1260.96
313.15 K	1447.63	1427.53	1406.26	1384.19	1360.71	1336.5	1310.92	1284.14	1255.65

Clc1ccccc1 [chlorobenzene] + ClCCCl
Details	mass density, [1] [kg/m3]	refractive index, [2]	viscosity, [1] [mPa·s]
298.15 K, x2 = 0.1022	1111.56	1.5149	0.7456
298.15 K, x2 = 0.2015	1123.05	1.508	0.7387
298.15 K, x2 = 0.3013	1135.29	1.5012	0.7351
298.15 K, x2 = 0.4039	1148.64	1.4935	0.7364
298.15 K, x2 = 0.4999	1161.91	1.486	0.7372
298.15 K, x2 = 0.5977	1176.36	1.4781	0.741
298.15 K, x2 = 0.6986	1192.24	1.4696	0.7445
298.15 K, x2 = 0.8	1209.3	1.4607	0.7536
298.15 K, x2 = 0.899	1227.12	1.4516	0.7659
303.15 K, x2 = 0.1022	1106.04	1.512	0.7146
303.15 K, x2 = 0.2015	1117.48	1.5052	0.7049
303.15 K, x2 = 0.3013	1129.68	1.4983	0.6991
303.15 K, x2 = 0.4039	1142.96	1.4908	0.6969
303.15 K, x2 = 0.4999	1156.2	1.4832	0.6963
303.15 K, x2 = 0.5977	1170.62	1.4752	0.6973
303.15 K, x2 = 0.6986	1186.46	1.4666	0.6975
303.15 K, x2 = 0.8	1203.48	1.4576	0.7009
303.15 K, x2 = 0.899	1221.28	1.4484	0.71
308.15 K, x2 = 0.1022	1100.15	1.509	0.6659
308.15 K, x2 = 0.2015	1111.22	1.5022	0.6595
308.15 K, x2 = 0.3013	1123.02	1.4951	0.6542
308.15 K, x2 = 0.4039	1135.91	1.4873	0.6505
308.15 K, x2 = 0.4999	1148.68	1.4797	0.6506
308.15 K, x2 = 0.5977	1162.62	1.4715	0.65
308.15 K, x2 = 0.6986	1177.92	1.4626	0.6493
308.15 K, x2 = 0.8	1194.4	1.4534	0.653
308.15 K, x2 = 0.899	1211.62	1.444	0.6574
313.15 K, x2 = 0.1022	1094.68	1.5049	0.619
313.15 K, x2 = 0.2015	1105.79	1.4983	0.6151
313.15 K, x2 = 0.3013	1117.62	1.4915	0.6143
313.15 K, x2 = 0.4039	1130.48	1.4838	0.6119
313.15 K, x2 = 0.4999	1143.37	1.4763	0.6125
313.15 K, x2 = 0.5977	1157.36	1.4682	0.6158
313.15 K, x2 = 0.6986	1172.73	1.4595	0.6191
313.15 K, x2 = 0.8	1189.28	1.4503	0.6241
313.15 K, x2 = 0.899	1206.59	1.441	0.6314
